Data taken from publication PMC11915855, “The flavonoid-sensing regulator AefR is involved in modulating quorum sensing through repressing the MexEF-OprN efflux pump in Pseudomonas fluorescens” (mSystems, 2025).
Where two headings read alike, the source gives them in different places.

Tests used:
[1] = molecular target: T1, AefR; assay: ITC with purified His6-AefR; supported by EMSA (disrupts AefR-pmexEF-oprN interaction at […]); format: binding, Pseudomonas fluorescens
T1 construct: His6-AefR (aefR gene in a pET-28b-derived vector)

[2] = molecular target: T1, AefR; assay: as above; format: binding, Pseudomonas fluorescens; remark: listed apart in the source

Row | Structure (SMILES) | Kd [1] [µM] | Kd [2] [µM]
1 | O=c1c(O)c(-c2ccc(O)c(O)c2)oc2cc(O)cc(O)c12 [quercetin] | 640 | 
2 | O=C(CCc1ccc(O)cc1)c1c(O)cc(O)cc1O [phloretin] | 2.79 | 
3 | O=c1cc(-c2ccc(O)cc2)oc2cc(O)cc(O)c12 [apigenin] |  | 162
